From patent US9102678B2, “Compounds and methods for inhibiting mitotic progression” (Millennium Pharmaceuticals, Inc., priority 2004, dated 2015)

biological target: T1, recombinant murine Aurora A enzyme (Mus musculus, UniProt P97477); assay: Aurora A DELFIA Kinase Assay; type: biochemical; details: mouse Aurora A, 250 μM ATP; threshold less than or equal to 100 nM; read-out: IC50
T1 construct: hexahistidine (His6) (N); made in house; host or cells: insect cells, baculovirus (Bac-to-Bac, Invitrogen)
From the text: Recombinant mouse Aurora A with an amino-terminus hexahistidine tag (His-Aurora A) was expressed using a standard baculovirus vector and insect cell expression system (Bac-to-Bac®, Invitrogen).
Soluble, recombinant mouse Aurora A was purified from insect cells using Ni-NTA agarose (Qiagen) as described by the manufacturer and further purified over an S75 size exclusion column (Amersham Pharmacia Biotech).
Aurora A DELFIA® Kinase Assay
The enzymatic reaction mixture, with and without Aurora inhibitors, was incubated for 15 minutes at room temperature before termination with 100 μL of stop buffer (1% BSA, 0.05% Surfact-AMPS-20, and 100 mM EDTA). A total of 100 μL of the enzyme reaction mixture was transferred to wells of a Neutravidin-coated 96-well plate (Pierce) and incubated at room temperature for 30 minutes. The wells were washed with wash buffer (25 mM Tris, 150 mM sodium chloride, and 0.1% Tween 20) and incubated for 1 hour with 100 μL of antibody reaction mixture containing 1% BSA, 0.05% Surfact-AMPS-20, anti-phospho-PKA rabbit polyclonal antibody (1:2000, New England Biolabs), and europium labeled anti-rabbit IgG (1:2000, Perkin Elmer). The wells were washed and then the bound europium was liberated using 100 μL of Enhancement Solution (Perkin Elmer). Quantification of europium was done using a Wallac™ EnVision (Perkin Elmer).

T1 sequence (P97477 whole entry): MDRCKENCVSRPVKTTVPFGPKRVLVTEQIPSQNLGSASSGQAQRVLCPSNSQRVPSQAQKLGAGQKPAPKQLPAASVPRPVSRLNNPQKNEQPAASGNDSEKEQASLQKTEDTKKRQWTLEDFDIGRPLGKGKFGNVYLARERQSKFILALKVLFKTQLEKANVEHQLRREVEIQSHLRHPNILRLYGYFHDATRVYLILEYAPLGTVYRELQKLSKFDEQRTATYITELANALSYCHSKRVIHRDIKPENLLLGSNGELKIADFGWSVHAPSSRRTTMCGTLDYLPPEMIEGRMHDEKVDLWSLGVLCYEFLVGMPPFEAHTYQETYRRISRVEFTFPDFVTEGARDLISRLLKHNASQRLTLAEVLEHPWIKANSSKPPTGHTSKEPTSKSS

IC50, ≤ 100 nM:
O=C(O)c1ccc(Nc2ncc3c(n2)-c2ccc(Cl)cc2C(c2c(F)cccc2F)=NC3)cc1 [Compound I-135, 4-[9-Chloro-7-(2,6-difluoro-phenyl)-5H-benzo[c]pyrimido[4,5-e]azepin-2-ylamino]-benzoic acid]
CN1CCN(C(=O)Cc2ccc(Nc3ncc4c(n3)-c3ccc(Cl)cc3C(c3ccccc3F)=NC4)cc2)CC1 [Compound I-145, 2-{4-[9-Chloro-7-(2-fluoro-phenyl)-5H-benzo[c]pyrimido[4,5-e]azepin-2-ylamino]-phenyl}-1-(4-methyl-piperazin-1-yl)-ethanone]
O=C(NCCc1c[nH]cn1)c1ccc(Nc2ncc3c(n2)-c2ccc(Cl)cc2C(c2ccccc2F)=NC3)cc1 [Compound I-147, 4-[9-Chloro-7-(2-fluoro-phenyl)-5H-benzo[c]pyrimido[4,5-e]azepin-2-ylamino]-N-[2-(1H-imidazol-4-yl)-ethyl]-benzamide]
Cc1ccc2c(c1)C(c1ccccc1F)=NCc1cnc(Nc3ccc(C(=O)NCCN4CCOCC4)cc3)nc1-2 [Compound I-148, 4-[7-(2-Fluoro-phenyl)-9-methyl-5H-benzo[c]pyrimido[4,5-e]azepin-2-ylamino]-N-(2-morpholin-4-yl-ethyl)-benzamide]
CN(CCc1ccccn1)C(=O)c1ccc(Nc2ncc3c(n2)-c2ccc(Cl)cc2C(c2ccccc2F)=NC3)cc1 [Compound I-160, 4-[9-Chloro-7-(2-fluoro-phenyl)-5H-benzo[c]pyrimido[4,5-e]azepin-2-ylamino]-N-methyl-N-(2-pyridin-2-yl-ethyl)-benzamide]
O=C(NCCc1ccccn1)c1ccc(Nc2ncc3c(n2)-c2ccc(Cl)cc2C(c2ccccc2F)=NC3)cc1 [Compound I-161, 4-[9-Chloro-7-(2-fluoro-phenyl)-5H-benzo[c]pyrimido[4,5-e]azepin-2-ylamino]-N-(2-pyridin-2-yl-ethyl)-benzamide]
CN1CCN(C(=O)c2cccc(Nc3ncc4c(n3)-c3ccc(Cl)cc3C(c3ccccc3F)=NC4)c2)CC1 [Compound I-163, {3-[9-Chloro-7-(2-fluoro-phenyl)-5H-benzo[c]pyrimido[4,5-e]azepin-2-ylamino]-phenyl}-(4-methyl-piperazin-1-yl)-methanone]
O=C(c1ccc(Nc2ncc3c(n2)-c2ccc(Cl)cc2C(c2ccccc2F)=NC3)cc1)N1CCN(CCN2CCCC2)CC1 [Compound I-171, 9-Chloro-7-(2-fluorophenyl)-N-(4-{[4-(2-pyrrolidin-1-ylethyl)piperazin-1-yl]carbonyl}phenyl)-5H-pyrimido[5,4-d][2]benzazepin-2-amine]
O=C(O)c1ccc(Nc2ncc3c(n2)-c2ccc(Cl)cc2C(c2c(F)cccc2Cl)=NC3)cc1 [Compound I-174, 4-{[9-Chloro-7-(2-chloro-6-fluorophenyl)-5H-pyrimido-[5,4-d][2]benzazepin-2-yl]amino}benzoic acid]
CC1CN(C(=O)c2ccc(Nc3ncc4c(n3)-c3ccc(Cl)cc3C(c3c(F)cccc3F)=NC4)cc2)CC(C)N1 (stereo not shown) [Compound I-175, 9-Chloro-7-(2,6-difluorophenyl)-N-{4-[(3,5-dimethylpiperazin-1-yl)carbonyl]phenyl}-5H-pyrimido[5,4-d][2]benzazepin-2-amine]
CN(C)C1CCN(C(=O)c2ccc(Nc3ncc4c(n3)-c3ccc(Cl)cc3C(c3c(F)cccc3F)=NC4)cc2)C1 (stereo not shown) [Compound I-176, 9-Chloro-7-(2,6-difluorophenyl)-N-(4-{[3-(dimethylamino)pyrrolidin-1-yl]carbonyl}phenyl)-5H-pyrimido[5,4-d][2]benzazepin-2-amine]
COc1cccc(F)c1C1=NCc2cnc(Nc3ccc(C(=O)N4CC(C)NC(C)C4)cc3)nc2-c2ccc(Cl)cc21 (stereo not shown) [Compound I-177, 9-Chloro-N-{4-[(3,5-dimethylpiperazin-1-yl)carbonyl]phenyl}-7-(2-fluoro-6-methoxyphenyl)-5H-pyrimido[5,4-d][2]benzazepin-2-amine]
COc1cccc(F)c1C1=NCc2cnc(Nc3ccc(C(=O)N4CCC(N(C)C)C4)cc3)nc2-c2ccc(Cl)cc21 (stereo not shown) [Compound I-178, 9-Chloro-N-(4-{[3-(dimethylamino)pyrrolidin-1-yl]carbonyl}phenyl)-7-(2-fluoro-6-methoxyphenyl)-5H-pyrimido[5,4-d][2]benzazepin-2-amine]
COc1cccc(F)c1C1=NCc2cnc(Nc3ccc(C(=O)N4CC(N(C)C)C4)cc3)nc2-c2ccc(Cl)cc21 [Compound I-179, 9-Chloro-N-(4-{[3-(dimethylamino)azetidin-1-yl]carbonyl}phenyl)-7-(2-fluoro-6-methoxyphenyl)-5H-pyrimido[5,4-d][2]benzazepin-2-amine]
CN(C)C1CN(C(=O)c2ccc(Nc3ncc4c(n3)-c3ccc(Cl)cc3C(c3c(F)cccc3F)=NC4)cc2)C1 [Compound I-180, 9-Chloro-7-(2,6-difluorophenyl)-N-(4-{[3-(dimethylamino)azetidin-1-yl]carbonyl}phenyl)-5H-pyrimido[5,4-d][2]benzazepin-2-amine]
O=C(c1ccc(Nc2ncc3c(n2)-c2ccc(Cl)cc2C(c2ccccc2F)=NC3)cc1)N1CCN(CCCN2CCCCC2)CC1 [Compound I-181, {4-[9-Chloro-7-(2-fluoro-phenyl)-5H-benzo[c]pyrimido[4,5-e]azepin-2-ylamino]-phenyl}-[4-(3-piperidin-1-yl-propyl)-piperazin-1-yl]-methanone]
O=C(c1ccc(Nc2ncc3c(n2)-c2ccc(Cl)cc2C(c2ccccc2F)=NC3)cc1)N1CCN(CCN2CCCCC2)CC1 [Compound I-182, {4-[9-Chloro-7-(2-fluoro-phenyl)-5H-benzo[c]pyrimido[4,5-e]azepin-2-ylamino]-phenyl}-[4-(2-piperidin-1-yl-ethyl)-piperazin-1-yl]-methanone]
CN(C)C1CCN(C(=O)c2ccc(Nc3ncc4c(n3)-c3ccc(Cl)cc3C(c3c(F)cccc3F)=NC4)cc2)CC1 [Compound I-183, {4-[9-Chloro-7-(2,6-difluoro-phenyl)-5H-benzo[c]pyrimido[4,5-e]azepin-2-ylamino]-phenyl}-(4-dimethylamino-piperidin-1-yl)-methanone]
CN1CCN(C(=O)c2ccc(Nc3ncc4c(n3)-c3ccc(Cl)cc3C(c3c(F)cccc3F)=NC4)cc2)CC1 [Compound I-184, {4-[9-Chloro-7-(2,6-difluoro-phenyl)-5H-benzo[c]pyrimido[4,5-e]azepin-2-ylamino]-phenyl}-(4-methyl-piperazin-1-yl)-methanone]
CN(C)CCCN(C)C(=O)c1ccc(Nc2ncc3c(n2)-c2ccc(Cl)cc2C(c2c(F)cccc2F)=NC3)cc1 [Compound I-185, 4-[9-Chloro-7-(2,6-difluoro-phenyl)-5H-benzo[c]pyrimido[4,5-e]azepin-2-ylamino]-N-(3-dimethylamino-propyl)-N-methyl-benzamide]
COc1cccc(F)c1C1=NCc2cnc(Nc3ccc(C(=O)N4CCC(N(C)C)CC4)cc3)nc2-c2ccc(Cl)cc21 [Compound I-186, {4-[9-Chloro-7-(2-fluoro-6-methoxy-phenyl)-5H-benzo[c]pyrimido-[4,5-e]azepin-2-ylamino]-phenyl}-(4-dimethylamino-piperidin-1-yl)-methanone]
CCCN(CCC)CCN1CCN(C(=O)c2ccc(Nc3ncc4c(n3)-c3ccc(Cl)cc3C(c3ccccc3F)=NC4)cc2)CC1 [Compound I-187, {4-[9-Chloro-7-(2-fluoro-phenyl)-5H-benzo[c]pyrimido[4,5-e]azepin-2-ylamino]-phenyl}-[4-(2-dipropylamino-ethyl)-piperazin-1-yl]-methanone]
O=C(c1ccc(Nc2ncc3c(n2)-c2ccc(Cl)cc2C(c2ccccc2F)=NC3)cc1)N1CCN(CCCN2CCCC2)CC1 [Compound I-188, {4-[9-Chloro-7-(2-fluoro-phenyl)-5H-benzo[c]pyrimido[4,5-e]azepin-2-ylamino]-phenyl}-[4-(3-pyrrolidin-1-yl-propyl)-piperazin-1-yl]-methanone]
O=C(c1ccc(Nc2ncc3c(n2)-c2ccc(Cl)cc2C(c2ccccc2F)=NC3)cc1)N1CCN(CCN2CCOCC2)CC1 [Compound I-189, {4-[9-Chloro-7-(2-fluoro-phenyl)-5H-benzo[c]pyrimido[4,5-e]azepin-2-ylamino]-phenyl}-[4-(2-morpholin-4-yl-ethyl)-piperazin-1-yl]-methanone]
COc1cccc(F)c1C1=NCc2cnc(Nc3ccc(C(=O)O)cc3)nc2-c2ccc(Cl)cc21 [Compound I-190, 4-[9-Chloro-7-(2-fluoro-6-methoxy-phenyl)-5H-benzo[c]pyrimido[4,5-e]azepin-2-ylamino]-benzoic acid]
